Results on three molecules are retold here after article PMC5681660, “Reduced hepatitis B and D viral entry using clinically applied drugs as novel inhibitors of the bile acid transporter NTCP” (Scientific Reports, 2017).

One may read the viability as the share of living cells, or the viability signal relative to a control. Lower therefore signals a greater loss of cells.

The target of data set [1] is T1, human ASBT (Homo sapiens, UniProt Q12908).
T1 construct: expressed in transfected cells; gift of Paul Dawson; induced with sodium butyrate
T1 sequence (Q12908 1-348): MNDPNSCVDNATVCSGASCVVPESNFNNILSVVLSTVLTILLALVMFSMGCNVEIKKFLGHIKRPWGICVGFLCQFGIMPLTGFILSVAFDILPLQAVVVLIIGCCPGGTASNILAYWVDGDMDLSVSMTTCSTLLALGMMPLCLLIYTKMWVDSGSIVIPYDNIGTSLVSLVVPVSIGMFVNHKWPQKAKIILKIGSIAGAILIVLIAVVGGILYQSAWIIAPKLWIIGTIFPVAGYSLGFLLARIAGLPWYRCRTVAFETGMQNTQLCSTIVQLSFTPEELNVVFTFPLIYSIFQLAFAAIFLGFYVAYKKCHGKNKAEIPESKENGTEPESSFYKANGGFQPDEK
Description: Taurocholate uptake in MDCK-hASBT cells. It is filed as cell-based. The note with it: compared with NTCP. The protocol:
(§1) U2OS and MDCK cells were grown in Dulbecco’s modified Eagle’s medium (DMEM, Sigma-Aldrich), supplemented with 10% FCS (Gibco), 1% L-glutamine (Lonza), and 1% penicillin/streptomycin (Lonza). […] Transient transfection of U2OS cells with mouse NTCP (mNTCP) was done with PEI reagent (Brunschwig, Basel, Switzerland). Shortly, U2OS cells were seeded one day prior to transfection in 24-well plates. On the day of transfection, 0.5 µg DNA was mixed with 100 µl unsupplemented DMEM and 3 µg/µl PEI. After 10–15 minute incubation at RT, 20 µl of the transfection mix was added to each 24-well. Transfected cells were used in further experiments 48–72 hours later. Cell lines were passaged twice a week at a confluence of 80%, and incubated in a humidified atmosphere of 37 °C + 5% CO2.
(§2) For MDCK or MDCK-hASBT cells 70.000 cells/well were plated in 24-well plates, followed by 24 hours 10 mM sodium butyrate (Sigma-Aldrich) stimulation the next day. Cells were used in the inhibition studies 24 hours (U2OS cell lines) or 48 hours (MDCK cell lines) later. Inhibition studies with mNTCP transiently transfected cells were conducted 48–72 hours after transfection.
(§3) Medium was aspirated from the wells and cells were washed once with 250 µL uptake buffer. Subsequently, cells were pre-incubated with drug in 150 µL uptake buffer for 10 minutes at 37 °C. Taurocholate uptake was initiated by addition of 100 µL uptake buffer containing taurocholate (final concentration 10 µM TC spiked with tritium-labeled TC) and cells were incubated for 2 minutes at 37 °C. Subsequently, cells were washed 4 times with ice-cold PBS and lysed with 0.05% SDS in water. Radioactivity was measured by liquid scintillation counting.

Data set [2] deals with T2, human NTCP (Homo sapiens, UniProt Q14973).
T2 sequence (Q14973 1-349): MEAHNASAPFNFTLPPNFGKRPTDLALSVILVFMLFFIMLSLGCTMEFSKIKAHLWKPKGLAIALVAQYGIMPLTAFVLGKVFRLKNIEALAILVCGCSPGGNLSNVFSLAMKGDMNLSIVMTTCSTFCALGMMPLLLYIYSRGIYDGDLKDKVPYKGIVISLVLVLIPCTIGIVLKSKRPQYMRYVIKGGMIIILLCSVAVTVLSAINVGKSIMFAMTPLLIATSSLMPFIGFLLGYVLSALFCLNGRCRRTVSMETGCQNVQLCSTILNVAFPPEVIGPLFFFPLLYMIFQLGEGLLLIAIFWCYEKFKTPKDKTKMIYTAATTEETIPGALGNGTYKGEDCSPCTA
The data set can be described thus: Screening taurocholate uptake assay (96-well, [14C]taurocholate, 10 µM drug). The note with it: for Ranking score: ranking over the functional and the binding screening assay; for B-score functional assay: screening taurocholate uptake, 10 µM drug.

For data set [3], the target named is T2, human NTCP. Description: Taurocholate uptake inhibition studies in U2OS-HA-hNTCP cells. It is filed as cell-based. On the set-up: HA; expressed in transfected cells. The note with it: for concentration at which NTCP was inhibited in repeated measurements of TC-uptake and Myrcludex B binding / IC50: U2OS-HA-hNTCP cells; for concentration at which NTCP was inhibited in repeated measurements of TC-uptake and Myrcludex B binding: both TC uptake and Myrcludex B binding; for IC50: concentrations 1 nM to 10 mM, read-out: IC50 for hNTCP-mediated TC uptake; for Taurocholate uptake into U2OS-HA-hNTCP cells (in words): increasing drug concentrations. The protocol: as §2, §3

Data set [4] has as its system HDV. Description: HDV infection of HepaRG cells (HDAg immunofluorescence). It is filed as cell-based, hepatitis delta virus. The note with it: HDAg positive cells, day 5; concentration-dependent.
Data set [5] relates to U2OS-HA-hNTCP cells. The note with it: 2 hours.
Data set [6] deals with HBV. The note with it: for HBV infection in HepaRG cells (in words): HBeAg, HBsAg, HBcAg, concentration-dependent; for concentration effective in reducing HBeAg and HBsAg production: HepaRG cells infected with HBV, supernatant day 7 to 10; for number of HBcAg positive stained cells: HepaRG cells, day 10 post HBV infection, 50 µM.
Data set [7] deals with T3, mouse NTCP (Mus musculus, UniProt O08705).
T3 construct: expressed in transfected cells; host or cells: U2OS (transient transfection, PEI)
T3 sequence (O08705 1-362): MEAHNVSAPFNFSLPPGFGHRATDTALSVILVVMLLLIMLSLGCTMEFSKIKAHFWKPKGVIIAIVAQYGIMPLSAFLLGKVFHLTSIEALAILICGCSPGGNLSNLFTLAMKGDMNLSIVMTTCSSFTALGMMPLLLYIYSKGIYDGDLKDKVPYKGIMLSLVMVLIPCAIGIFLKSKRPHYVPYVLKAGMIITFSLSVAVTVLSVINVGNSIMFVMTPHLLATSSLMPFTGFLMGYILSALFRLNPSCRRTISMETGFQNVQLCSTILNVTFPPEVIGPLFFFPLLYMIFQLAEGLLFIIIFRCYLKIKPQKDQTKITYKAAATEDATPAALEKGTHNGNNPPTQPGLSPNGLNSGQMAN
Description: Taurocholate uptake in U2OS cells transiently transfected with mouse NTCP. It is filed as cell-based. The note with it: at the calculated IC50 value for hNTCP. The protocol:
as §1, §2, §3

The test system of data set [8] is U2OS cells. Description: WST-1 cytotoxicity, wildtype U2OS cells. The note with it: U2OS cells, 2 hours. In general terms: Tetrazolium dyes change colour on reduction, which living cells bring about.
Data set [9] deals with T2, human NTCP. The data set can be described thus: Myrcludex B-FITC binding by confocal microscopy in U2OS-HA-hNTCP cells. Further details: HA; expressed in transfected cells. The note with it: for Myrcludex B-FITC fluorescence / binding to U2OS-HA-hNTCP cells (in words): co-administration with increasing amounts of drug; for ≥50% loss of Myrcludex B binding to hNTCP (concentration): confocal microscopy, 0.2 µM Myrcludex B-FITC, drug 1, 10, 100 µM, concentration at which binding inhibited minimally 50%. The protocol: After 24 hours, medium was aspirated and cells were washed once with 300 µl Leibovitz’s L-15 Medium (Invitrogen). A 30 minute incubation period followed in which all cells were incubated with 0.2 µM Myrcludex B-FITC with or without drug (1, 10, 100 µM) and Hoechst (1/1000) in 300 µL Leibovitz’s L-15 Medium. Cells were washed twice with Leibovitz’s L-15 Medium and subsequently 400 µL Leibovitz’s L-15 Medium was added. Live cell fluorescent imaging was performed using a Leica SP8X-SMD confocal microscope with fully enclosed incubation at 37 °C. A 63x oil objective was used and images were captured while the cells were consecutively excited at 490 nm (FITC) 350 nm (Hoechst). ImageJ software (National Insititutes of Health, Bethesda, MD) was employed for data analysis.

Data set [10] in a line: in vitro. The note with it: human, U2OS-HA-hNTCP cells.
A short description of data set [11]: WST-1 cytotoxicity, wildtype U2OS cells. The note with it: human.
Data set [12] deals with HBV. The note with it: primary human hepatocytes, cited from earlier work.
In data set [13] the test system is HBV. The data set can be described thus: HBV infection of primary human hepatocytes (literature). It is filed as cell-based, hepatitis B virus.
Data set [14] deals with HDV RNA and HBV DNA serum levels. The note with it: chronic hepatitis delta patients, 24 weeks; cited from earlier work.
The target of data set [15] is T2, human NTCP. Description: Sodium dependent tauro-ursodeoxycholic acid uptake into U2OS-HA-hNTCP cells. It is filed as cell-based. On the set-up: HA; expressed in transfected cells. The protocol: Figure 4 Myrcludex B inhibits uptake of tauro-ursodeoxycholic acid. Sodium dependent tauro-ursodeoxycholic acid uptake into U2OS-HA-hNTCP cells was reduced in the presence of Myrcludex B. N = 6 wells/condition, data are depicted as mean ± SD.
Buffers were set to pH 7.4, at room temperature. After washing, cells were pre-incubated for 10 minutes with drugs in 50 µL uptake buffer. […] After incubation, buffer was removed and cells were washed 2x with ice-cold PBS. Cells were lysed for a minimum of 30 minutes in 30 µL/well 0.05% SDS in water. When lysis was complete, 120 µL MicroScint™-20 (PerkinElmer) was added to the wells and radioactivity was measured by liquid scintillation counting.

Entries after “also recorded” stand apart in the source; their conditions may differ. Where two headings read alike, the source gives them in different places.

For the molecule `COc1cc(-c2ccc(N=Nc3ccc4c(S(=O)(=O)[O-])cc(S(=O)(=O)[O-])c(N)c4c3O)c(OC)c2)ccc1N=Nc1ccc2c(S(=O)(=O)[O-])cc(S(=O)(=O)[O-])c(N)c2c1O.[Na+].[Na+].[Na+].[Na+]` [Chicago Sky Blue 6B], the “inhibition of ASBT-mediated taurocholate uptake” value in data set [1] was “inhibited ASBT to a similar extent as NTCP; also recorded: inhibit ASBT in a concentration-dependent fashion”. In data set [2], this molecule had a Ranking score of 17.4642 and a B-score functional assay of -3.126. Besides, in data set [3], the “concentration at which NTCP was inhibited in repeated measurements of TC-uptake and Myrcludex B binding” value is given as not above 10 µM; the IC50 was 7.1 µM; the “Taurocholate uptake into U2OS-HA-hNTCP cells (in words)” value was “reduced”. The “HDV infection in HepaRG cells (in words)” value in data set [4] is recorded as “reduced HBV/HDV infection”. Further, in data set [5] (1 µM), the “cell viability by WST-1” value was determined as 87.8 ± 7.2%. In addition, the “cell viability by WST-1” value in data set [5] (10 µM) amounted to 95.8 ± 5.9%. For the same molecule, the “cell viability by WST-1” value in [5] (100 µM) was found to be 110.9 ± 9.4%. In addition, in [6], the “HBV infection in HepaRG cells (in words)” value is “reduced HBV/HDV infection”; the “concentration effective in reducing HBeAg and HBsAg production” value is 17 µM; the “number of HBcAg positive stained cells” value is reported as “severely reduced”. In addition, the “inhibition of mouse Ntcp-mediated taurocholate uptake compared with human NTCP” value in data set [7] is “more capable of inhibiting mouse Ntcp; also recorded: more potent in inhibiting mouse NTCP”. In data set [8] (1 µM), the “cell viability by WST-1” value was found to be 91.0 ± 9.3%. In data set [8] (10 µM), the “cell viability by WST-1” value came out at 93.9 ± 5.4%. The “cell viability by WST-1” value in data set [8] (100 µM) is reported as 108.7 ± 5.6%. Further, in data set [9], the “Myrcludex B-FITC fluorescence / binding to U2OS-HA-hNTCP cells (in words)” value was “reduced” and the “≥50% loss of Myrcludex B binding to hNTCP (concentration)” value was not below 1 µM.

`COc1cc(C(=O)NS(=O)(=O)c2ccccc2C)ccc1Cc1cn(C)c2ccc(NC(=O)OC3CCCC3)cc12` [Zafirlukast]: the “inhibition of ASBT-mediated taurocholate uptake” value in [1] is “inhibited ASBT less effectively and at higher concentrations than observed for NTCP; also recorded: inhibit ASBT in a concentration-dependent fashion”. In data set [2], this molecule displayed a Ranking score of 4.472 and a B-score functional assay of -7.741. In data set [10], this molecule registered a viability at 2 h, 1 µM of 94.7 ± 12.7%; a viability at 2 h, 10 µM of 87.1 ± 12.3%; a viability at 2 h, 100 µM of 77.7 ± 8%. In data set [3], the “concentration at which NTCP was inhibited in repeated measurements of TC-uptake and Myrcludex B binding” value is listed as not above 10 µM; the IC50 stood at 6.5 µM; the “Taurocholate uptake into U2OS-HA-hNTCP cells (in words)” value is recorded as “reduced”. Also, the “HDV infection in HepaRG cells (in words)” value in data set [4] is given as “reduced HBV/HDV infection; also recorded: reduce”. In addition, in data set [6], the “HBV infection in HepaRG cells (in words)” value is reported as “reduced HBV/HDV infection; also recorded: reduce”; the “concentration effective in reducing HBeAg and HBsAg production” value turned out to be 17 µM; the “number of HBcAg positive stained cells” value was “severely reduced”. For the same molecule, the “inhibition of mouse Ntcp-mediated taurocholate uptake compared with human NTCP” value in [7] was “inhibited similarly as human NTCP”. In data set [11], this molecule registered a viability at 1 µM of 87.7 ± 4.8%, a viability at 10 µM of 94.1 ± 2.7% and a viability at 100 µM of 73 ± 5.8%. For the same molecule, the “decreased Myrcludex B binding” value in data set [9] (at 10 µM) is “more than 50%”. Besides, in [9], the “Myrcludex B-FITC fluorescence / binding to U2OS-HA-hNTCP cells (in words)” value is recorded as “reduced Myrcludex B-FITC fluorescence” and the “≥50% loss of Myrcludex B binding to hNTCP (concentration)” value was not below 1 µM.

For Myrcludex B, the IC50 in data set [12] (read-out: concentration inhibiting HBV infection, HBeAg) was 83 pM; in data set [12] (read-out: concentration inhibiting HBV infection, HBsAg), 669 pM. Moreover, the “fold lower concentration for blocking HBV infection than IC50 for bile acid transport” value in data set [13] is reported as “at least 50 fold”. Further, in data set [14], the “HDV RNA and HBV DNA serum levels” value is listed as “Largely reduced”. Further, the “sodium-dependent uptake of tauro-ursodeoxycholic acid” value in data set [15] is given as “largely inhibited; also recorded: reduced”.
